Test results: publication PMC11684029, “Discovery of VU6024578/BI02982816: An mGlu1 Positive Allosteric Modulator with Efficacy in Preclinical Antipsychotic and Cognition Models” (Journal of Medicinal Chemistry, 2024)
pEC50, pIC50: −log10 of the molar value. Entries after “also recorded” stand apart in the source; their conditions may differ.

Legend:
mGlu1 = mGlu1 (Mus musculus, UniProt P97772); assay: mGlu1 PAM assay, mouse receptor; assay type: cell-based; settings: n = 5
Protocol: Over the course of the mGlu1 PAM program, 19d became an assay standard and was assayed multiple times, affording refined potency values.[20]

5-HT2B = 5-HT2B (Homo sapiens, UniProt P41595); assay: follow-up functional assay; assay type: biochemical
Chain of 5-HT2B (P41595 whole entry): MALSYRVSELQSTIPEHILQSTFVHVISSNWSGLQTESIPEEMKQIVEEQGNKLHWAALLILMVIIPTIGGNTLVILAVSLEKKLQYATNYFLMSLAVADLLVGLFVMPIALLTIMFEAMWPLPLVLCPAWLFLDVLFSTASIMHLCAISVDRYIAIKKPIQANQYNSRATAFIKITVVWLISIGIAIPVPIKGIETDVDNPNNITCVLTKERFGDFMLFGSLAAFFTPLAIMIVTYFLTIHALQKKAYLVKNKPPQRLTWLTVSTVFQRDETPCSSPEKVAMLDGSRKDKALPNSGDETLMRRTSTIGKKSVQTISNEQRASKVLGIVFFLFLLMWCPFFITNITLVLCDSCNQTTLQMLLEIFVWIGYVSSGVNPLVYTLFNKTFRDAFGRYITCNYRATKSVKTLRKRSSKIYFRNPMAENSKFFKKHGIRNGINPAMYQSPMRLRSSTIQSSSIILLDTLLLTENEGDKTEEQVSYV

P-gp (MDR1) = target: T1, P-gp (MDR1) (Homo sapiens, UniProt P08183); assay: MDCK-MDR1 permeability/efflux; assay type: in vitro ADME; settings: human
T1 construct: expressed in transfected cells; host or cells: MDCK-MDR1
T1 sequence (P08183 whole entry): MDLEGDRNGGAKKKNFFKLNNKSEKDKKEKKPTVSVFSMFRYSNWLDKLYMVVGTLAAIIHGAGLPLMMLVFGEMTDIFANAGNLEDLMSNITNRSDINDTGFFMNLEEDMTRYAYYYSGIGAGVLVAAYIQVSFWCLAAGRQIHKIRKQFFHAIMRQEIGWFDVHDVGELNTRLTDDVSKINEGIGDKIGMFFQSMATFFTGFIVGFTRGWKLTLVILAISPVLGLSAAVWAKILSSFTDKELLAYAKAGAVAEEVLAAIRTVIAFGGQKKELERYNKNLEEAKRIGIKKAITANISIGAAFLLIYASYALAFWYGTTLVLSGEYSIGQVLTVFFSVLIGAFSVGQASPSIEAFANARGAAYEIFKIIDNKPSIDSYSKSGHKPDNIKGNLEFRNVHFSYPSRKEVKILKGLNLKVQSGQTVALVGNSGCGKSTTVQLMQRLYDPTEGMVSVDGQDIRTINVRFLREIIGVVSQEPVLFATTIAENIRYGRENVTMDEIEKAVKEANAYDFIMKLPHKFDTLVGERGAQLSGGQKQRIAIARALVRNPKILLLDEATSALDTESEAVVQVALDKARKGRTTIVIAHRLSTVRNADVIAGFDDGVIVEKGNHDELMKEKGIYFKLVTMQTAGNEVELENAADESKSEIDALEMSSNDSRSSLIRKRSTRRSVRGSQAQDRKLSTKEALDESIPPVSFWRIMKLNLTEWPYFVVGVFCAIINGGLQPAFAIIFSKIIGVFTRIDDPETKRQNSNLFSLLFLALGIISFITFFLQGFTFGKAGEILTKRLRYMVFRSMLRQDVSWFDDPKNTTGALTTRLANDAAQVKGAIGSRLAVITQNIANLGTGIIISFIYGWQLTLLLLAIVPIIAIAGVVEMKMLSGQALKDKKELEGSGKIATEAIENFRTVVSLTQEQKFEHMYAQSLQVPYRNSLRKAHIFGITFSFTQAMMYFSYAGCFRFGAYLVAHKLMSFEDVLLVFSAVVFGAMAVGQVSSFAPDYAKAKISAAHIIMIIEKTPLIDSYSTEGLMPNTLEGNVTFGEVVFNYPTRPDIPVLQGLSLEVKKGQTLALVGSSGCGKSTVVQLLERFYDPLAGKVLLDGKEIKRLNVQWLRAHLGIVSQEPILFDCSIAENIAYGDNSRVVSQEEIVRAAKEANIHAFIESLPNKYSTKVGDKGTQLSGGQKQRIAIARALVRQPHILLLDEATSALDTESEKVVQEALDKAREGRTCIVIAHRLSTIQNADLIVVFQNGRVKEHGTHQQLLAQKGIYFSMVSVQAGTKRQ

human P-gp = target: T2, human P-gp (Homo sapiens, UniProt P08183); assay: MDCK-MDR1 permeability/efflux; assay type: in vitro ADME
T2 construct: expressed in transfected cells; host or cells: MDCK-MDR1
T2 sequence (P08183 whole entry): as above

2C9 = target: T3, 2C9 (Homo sapiens, UniProt P11712); assay: inhibition of cytochrome P450 enzymes; assay type: in vitro ADME; settings: human liver microsomes; read-out: CYP450 2C9 inhibition
T3 construct: 0.1 mg/mL human liver microsomes (HLM) and Substrate Mix; from tissue; host or cells: human liver microsomes
T3 sequence (P11712 whole entry): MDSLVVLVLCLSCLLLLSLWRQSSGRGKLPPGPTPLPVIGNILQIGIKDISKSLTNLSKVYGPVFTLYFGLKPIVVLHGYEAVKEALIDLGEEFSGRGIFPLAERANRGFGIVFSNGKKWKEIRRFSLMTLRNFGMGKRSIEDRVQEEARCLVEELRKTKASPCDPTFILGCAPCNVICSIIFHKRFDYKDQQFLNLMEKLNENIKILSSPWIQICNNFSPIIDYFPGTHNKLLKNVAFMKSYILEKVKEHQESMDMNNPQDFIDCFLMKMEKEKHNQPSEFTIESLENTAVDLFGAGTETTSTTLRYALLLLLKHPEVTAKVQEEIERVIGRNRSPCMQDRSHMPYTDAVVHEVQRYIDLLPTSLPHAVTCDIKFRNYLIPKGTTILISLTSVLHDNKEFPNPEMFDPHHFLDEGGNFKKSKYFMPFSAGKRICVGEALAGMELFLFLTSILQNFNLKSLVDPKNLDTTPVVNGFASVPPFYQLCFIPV
Protocol: A cocktail of substrates for cytochrome P450 enzymes (1A2: Phenacetin, 10 μM; 2C9: Diclofenac, 5 μM; 2D6: Dextromethorphan, 5 μM; 3A4: Midazolam, 2 μM) were mixed for cocktail analysis. For P450 2C19, the substrate stock (Mephenytoin, 40 μM)and substrate mix were prepared separately for discrete analysis. The positive control for pan-P450 inhibition (miconazole) was included alongside each test compound in analysis.
A reaction mixture of 100 mM Kpi, pH 7.4, 0.1 mg/mL human liver microsomes (HLM) and Substrate Mix is prepared and aliquoted into a 96-deepwell block. Test compound and positive control (in duplicate) were then added such that the final concentration of test compound ranged from 0.1–30 μM. The plate was vortexed briefly and then preincubated at 37 °C while shaking for 15 min. The reaction was initiated with the addition of NADPH (1 mM final concentration). The incubation continued for 8 min and the reaction quenched by 2x volume of cold acetonitrile containing internal standard (50 nM carbamazepine). The plate was centrifuged for 10 min (4000 rcf, 4 °C) and the resulting supernatant diluted 1:1 with water for LC/MS/MS analysis. A 12 point standard curve of substrate metabolites over the range of 0.98 nM to 2000 nM.
Samples were analyzed via electrospray ionization (ESI) on an AB Sciex API-4000 (Foster City, CA) triple-quadrupole instrument that was coupled with Shimadzu LC-10AD pumps (Columbia, MD) and a Leap Technologies CTC PAL autosampler (Carrboro, NC). Analytes were separated by gradient elution using a Fortis C18 3.0 × 50 mm, 3 μm column (Fortis Technologies Ltd., Cheshire, UK) thermostated at 40 °C. […]
The IC50 values for each compound were obtained for the individual CYP enzymes by quantitating the inhibition of metabolite formation for each probe substrate. A 0 μM compound condition (or control) was set to 100% enzymatic activity and the effect of increasing test compound concentrations on enzymatic activity could then be calculated from the % of control activity. […]

Sprague–Dawley rats [1] = assay: catalepsy (latency to withdraw); assay type: in vivo; settings: rat, doses up to 10 mg/kg p.o., 100 min postdose
Protocol: In order to enable our target validation work, we first profiled PAM 19d in a rat locomotor battery to ensure that pharmacodynamic efficacy was not mistaken for gross effects on locomotion.[20] […] PK was performed in parallel to establish a PK/PD relationship.[24]
Control rats were injected with 1.5 mg/kg of haloperidol i.p. (dissolved in 8% lactic acid and taken to volume of 50 mL with sterile water) and were returned to their home cage for 90 min. Cataleptic behavior is determined by placing the forelimbs on a bar raised 6 cm above the table and recording the amount of time it takes for the rat to withdraw the forelimbs with a cutoff of 60 s. Data are expressed as mean latency to withdraw + SEM or percent inhibition of catalepsy + SEM.

Sprague–Dawley rats [2] = assay: amphetamine-induced hyperlocomotion (rat); assay type: in vivo
Protocol: Here, administration of 0.75 mg/kg IP of amphetamine induced a robust hyperlocomotive state in rats (>1200 beam breaks), which was dose-dependently reversed by oral administration of 19d. […] Considering the longer time point for exposure and the results, mGlu1 has sufficient target coverage and PK/PD is established for this paradigm.[24]
Figure 7 Rat amphetamine-induced hyperlocomotion and reversal by VU6024578 (19d). Amphetamine (0.75 mg/kg IP) induced robust hyperlocomotion, which was dose-dependently reversed by oral administration (10% tween 80) of 19d. TEXT PRINTED IN THE PICTURE: VU6024578: Mean % reversal: -0.2 ± 13.0 (1 mg/kg p.o. + Amphetamine 0.75 mg/kg s.c.); Mean % reversal: 31.6 ± 10.2 (3 mg/kg p.o. + Amphetamine 0.75 mg/kg s.c.); Mean % reversal: 31.4 ± 4.3 (5.6 mg/kg p.o. + Amphetamine 0.75 mg/kg s.c.); Mean % reversal: 41.8 ± 7.1 (10 mg/kg p.o. + Amphetamine 0.75 mg/kg s.c.)
Adult male Sprague–Dawley rats placed into the activity chambers (Med Associates). Thirty minutes after placement in the chambers, the rats were administered VU6024578 (1–10 mg/kg p.o.) or vehicle. Sixty minutes later the rats were injected with amphetamine (0.75 mg/kg s.c. One ml/kg) or vehicle (saline) and placed back in the activity chambers for 90 min. The data for the studies were analyzed by a between-group 2 way analysis of variance for compound dose and time. Each dose group was compared with the vehicle control group. The calculations were performed and graphed using GraphPad Prism (version 4.03, GraphPad, La Jolla, CA). The AUC was analyzed by a 1-way ANOVA with a Dunnett’s post hoc test.

CCK2 (CCKB) = target: T4, CCK2 (CCKB) (Homo sapiens, UniProt P32239); assay: Eurofins radioligand binding panel; settings: agonist radioligand
T4 construct: Eurofins (panel run as a service)
Description: Table S1. Eurofins Lead Profiling Screen Data
This is a radioligand binding panel of 80 targets including GPCRs, ion channels, transporters and nuclear hormones. Biochemical assay results are presented as the percent inhibition of specific […]
Results showing an inhibition or stimulation higher than 50% are considered to represent significant effect and are highlighted […]
Target / Protein Species % Inhibition at 10 […]
CCK2 (CCKB) (agonist radioligand) human -4

Chain of mGlu1 (P97772 21-1199): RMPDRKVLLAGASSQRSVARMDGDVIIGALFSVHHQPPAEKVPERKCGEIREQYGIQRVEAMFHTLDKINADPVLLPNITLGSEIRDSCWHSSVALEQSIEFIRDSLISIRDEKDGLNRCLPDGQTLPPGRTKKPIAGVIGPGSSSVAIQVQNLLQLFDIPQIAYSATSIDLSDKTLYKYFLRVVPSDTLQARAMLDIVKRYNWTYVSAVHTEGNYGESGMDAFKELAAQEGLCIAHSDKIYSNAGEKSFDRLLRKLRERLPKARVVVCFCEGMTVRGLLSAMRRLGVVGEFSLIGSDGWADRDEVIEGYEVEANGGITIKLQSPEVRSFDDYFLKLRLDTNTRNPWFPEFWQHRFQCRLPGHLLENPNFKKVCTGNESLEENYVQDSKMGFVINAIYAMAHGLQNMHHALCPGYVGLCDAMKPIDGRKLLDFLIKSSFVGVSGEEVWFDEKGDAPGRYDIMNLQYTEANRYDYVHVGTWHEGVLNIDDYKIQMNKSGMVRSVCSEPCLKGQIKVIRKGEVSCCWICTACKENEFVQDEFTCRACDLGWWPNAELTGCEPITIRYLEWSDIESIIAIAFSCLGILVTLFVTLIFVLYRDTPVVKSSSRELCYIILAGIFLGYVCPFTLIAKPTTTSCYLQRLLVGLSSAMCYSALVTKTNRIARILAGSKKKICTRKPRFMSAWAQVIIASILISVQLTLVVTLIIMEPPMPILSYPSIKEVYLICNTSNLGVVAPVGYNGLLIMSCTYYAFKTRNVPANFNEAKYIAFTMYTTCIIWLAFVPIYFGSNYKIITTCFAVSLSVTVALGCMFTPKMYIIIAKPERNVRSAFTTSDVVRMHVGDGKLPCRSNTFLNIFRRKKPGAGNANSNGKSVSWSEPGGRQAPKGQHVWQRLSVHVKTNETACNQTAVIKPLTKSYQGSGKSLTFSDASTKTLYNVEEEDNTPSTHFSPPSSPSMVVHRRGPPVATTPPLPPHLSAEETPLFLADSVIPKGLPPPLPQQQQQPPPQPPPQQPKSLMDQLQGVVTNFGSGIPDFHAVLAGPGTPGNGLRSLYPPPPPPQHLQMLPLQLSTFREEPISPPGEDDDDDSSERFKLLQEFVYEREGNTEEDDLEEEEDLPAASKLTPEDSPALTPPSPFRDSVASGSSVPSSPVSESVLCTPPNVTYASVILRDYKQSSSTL

`Cn1nc(-c2ccnn2C)cc1CNC(=O)c1cc(-c2ccco2)ccc1Cl` [Compound 19d, 2-Chloro-N-((1,2′-dimethyl-1H,2’H-[3,3′-bipyrazol]-5-yl)methyl)-5-(furan-2-yl)benzamide] was tested, and the pEC50 (mGlu1) was 7.57, the “mouse mGlu1 Glumax” value (mGlu1) was 89% and the “mouse mGlu1 pEC50” value (mGlu1) was 7.59 ± 0.07. For the same molecule, the “functional activity at 5-HT2B” value (5-HT2B) was “inactive”, the Papp (P-gp (MDR1)) was 73 ×10⁻⁶ cm/s and the “human P-gp substrate, in words” value (human P-gp) was “not a human P-gp substrate”. The pIC50 (2C9) was 5.19, the catalepsy (Sprague–Dawley rats [1]) was “lack of effect; also recorded: without effect” and the “Mean % reversal of AHL” value (Sprague–Dawley rats [2]; 1 mg/kg p.o.) was -0.2 ± 13.0%. The “Mean % reversal of AHL” value (Sprague–Dawley rats [2]; 3 mg/kg p.o.) was 31.6 ± 10.2%, the “Mean % reversal of AHL” value (Sprague–Dawley rats [2]; 5.6 mg/kg p.o.) was 31.4 ± 4.3% and the “Mean % reversal of AHL” value (Sprague–Dawley rats [2]; 10 mg/kg p.o.) was 41.8 ± 7.1%. For the same molecule, the “minimum effective dose (MED), AHL” value (Sprague–Dawley rats [2]; p.o.) was 3 mg/kg and the inhibition at 10 µM (CCK2 (CCKB)) was -4%.
